These are literature values, as cited in patent US20100136125A1, “METHOD OF TREATING INFLAMMATORY BOWEL DISEASE” (Jacobus Pharmaceutical Company, Inc., priority 2006, published 2010).

Read-outs that look alike come from different tables or passages of the source. Some results are limits rather than exact numbers.

The target of data set [1] is T1, thiopurine methyltransferase (TPMT) (Homo sapiens, UniProt P51580).
T1 sequence (P51580 1-245): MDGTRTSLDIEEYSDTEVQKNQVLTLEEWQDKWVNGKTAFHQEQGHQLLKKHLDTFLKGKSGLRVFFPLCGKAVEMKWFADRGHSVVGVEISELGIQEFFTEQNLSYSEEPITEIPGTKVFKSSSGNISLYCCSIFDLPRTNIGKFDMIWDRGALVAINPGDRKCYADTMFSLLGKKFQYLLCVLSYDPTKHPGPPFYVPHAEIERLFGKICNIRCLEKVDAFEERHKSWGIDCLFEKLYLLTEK
Conditions: in vitro kinetic studies; read-out: IC50, non-competitive inhibition of TPMT.

For data set [2] the following is noted: children, 300 mg/kg/day in 5 equal doses.
For data set [3] the following is noted: in vivo.
Data set [4] deals with active left-sided ulcerative colitis. Conditions: 2 gram nightly retention enema, p<0.005 vs placebo.
Data set [5] relates to distal ulcerative colitis. Conditions: enema 2 g bid, open-label.
In data set [6] the test system is quiescent Crohn's ileocolitis. Conditions: 1.5 g/d slow release, maintenance therapy.
The subject of the next data set is ulcerative colitis. Conditions: topical.
Test in data set [7]: not given
This is another data set of the same source.

Data set [8] concerns Crohn's disease. The following applies: in vivo.
For data set [9], the system named is Crohn's disease.
Setting [10] is: dose 4.0 gm PASER, 2.6-2.8 gm salts.

With `Nc1cccc(C(=O)O)c1O` [3-ASA], the IC50 (commonly the point on the concentration scale where inhibition reaches its midpoint) in data set [1] was 99 µM.

As to `Nc1ccc(C(=O)O)c(O)c1` [4-ASA, 4-aminosalicylic acid], the half-inhibitory concentration (IC50) in data set [1] was 2600 µM. Also, the “excreted in the urine” value (in vivo) was at most 80%. For the same molecule, under “renal disease”, the “half-life of free 4-ASA” value is 30.8 min. For the same molecule, under “urine”, the “dosage excreted in acetylated form” value was at least 50%. The “half-life of free 4-ASA” value (without renal disease) was 26.4 min. For the same molecule, in data set [2], the “serum level after 4 hours” value is 2-2.5 mg percent and the “serum level of 4-ASA 60 minutes after oral solution” value was at most 120 micrograms/ml. Besides, the MIC result with tuberculosis (bacteriostatic) is “under 2 μg/ml”. For the same molecule, in data set [3], the half-life – broadly, the time needed for the level to fall by half in the phase considered – is 50 min. Besides, in data set [4], the “significant improvement in clinical, sigmoidoscopic and histologic variables after 8 weeks” value was 83%. The “participants with complete resolution of symptoms and sigmoidoscopic abnormalities by 8 weeks” value in [5] is recorded as 46%. The “additional participants experiencing improvement” value in [5] (8 weeks) is given as 31%. Moreover, in data set [6], the “relapse rate after one year” value was 36%. In addition, in the data set with ulcerative colitis, the “clinical improvement within 2 weeks” value was 79%, the “histologic improvement within 2 weeks” value is listed as 44% and the “sigmoidoscopic improvement within 2 weeks” value is listed as 78%.

Regarding `Nc1ccc(O)c(C(=O)O)c1` [5-ASA, 5-aminosalicylic acid], the IC50 in data set [1] is 1240 µM. Further, in the data set with tuberculosis, the “anti-tuberculous activity” value is “no anti-tuberculous activity”. For the same molecule, the “relapse rate after one year” value in [6] was 38%. For the same molecule, in the data set on ulcerative colitis, the “clinical improvement within 2 weeks” value is on record as 79%, the “histologic improvement within 2 weeks” value is 44% and the “sigmoidoscopic improvement within 2 weeks” value was 78%.

Consider `Nc1ccc(C(=O)O)c([O-])c1.Nc1ccc(C(=O)O)c([O-])c1.[Ca+2]` [Ca++ PAS], for which, in [7] (in vivo), the “AOC0-∞” value is 326.83 µg·h/mL; the Cmax – broadly, the highest concentration seen after dosing – is 139.51 µg/mL; the Tmax (in general, the time from dosing to the highest level) was 61.2 min.

With `Nc1ccc(C(=O)[O-])c(O)c1.[K+]` [K+ PAS], in data set [7] (setting [10]), the “AOC0-∞” value is 313.22 µg·h/mL, the Cmax was 121.09 µg/mL and the Tmax is 66 min.

As to `Nc1ccc(C(=O)[O-])c(O)c1.[Na+]` [Na+ PAS], in data set [7] (in vivo), the “AOC0-∞” value was 313.22 µg·h/mL, the Cmax is 155.44 µg/mL and the time to peak (Tmax) is 49.8 min.

With `O=C(O)c1cc(/N=N/c2ccc(S(=O)(=O)Nc3ccccn3)cc2)ccc1O` [sulfasalazine], the IC50 in data set [1] is 78 µM.

With Acetyl-para-aminosalicylate [Ac-PAS], the “half-life of the acetylated metabolite” value (normals) was 51 min and the “half-life of the acetylated metabolite” value (uremic patients) is 309 min.

Turning to “granulocyte-macrophage stimulating factor: granulocyte-macrophage stimulating factor studied in active Crohn's disease”, the “time by which significant clinical activity is demonstrated” value in the data set on Crohn's disease [8] is recorded as at most 15 days.

With “infliximab: TNF antagonist, chimeric monoclonal antibody cA2 to tumor necrosis factor α”, in the data set with Crohn's disease [9] (at 4 weeks), the remission rate is listed as 33% and the response rate is 65%. Further, in the data set with Crohn's disease [9] (by two weeks), the “remission (CDAI<150 and IBDQ>170-190)” value is on record as 27%; the “response (decrease in CDAI≧70 points)” value was 61%.
